# Reference: US20240024273A1, “TOPICAL ADMINISTRATION OF 2-(DIETHYLAMINO)ETHYL 2-(4-ISOBUTYLPHENYL)PROPRIONATE FOR TREATMENT OF DISEASES” (TECHFIELDS PHARMA CO., LTD., priority 2020, published 2024)
# System: Mild to Moderate Osteoarthritis of the Knee
# Assay: Phase 2 study: WOMAC difficulty performing daily activities subscale score
# Format: in vivo, human
# Details: for Change of WOMAC Difficulty performing daily activities score from baseline (±SEM) / Percentage of improvement from baseline, WOMAC Difficulty performing daily activities score: all patients taken as active
# Source text: This is a Phase 2, multicenter, randomized, double blind (within dose), placebo controlled, parallel group, proof of concept, and dose range finding study to evaluate the efficacy, safety, and PK of 2-(diethylamino)ethyl 2-(4-isobutylphenyl)propionate hydrochloride spray in adult subjects with clinically symptomatic mild to moderate OA of the knee. For subjects with bilateral knee pain, both knees will be treated, but the most symptomatic knee (i.e., the most painful knee as measured by the Western Ontario and McMaster University Osteoarthritis Index [WOMAC® 3.1] pain subscale score at Screening) will be designated as the target knee for efficacy analyses. For subjects with unilateral knee pain, only the symptomatic (target) knee will be treated.
# After a Screening Period of up to 3 weeks and radiographic evaluation of the target knee joint space, a subject will be randomly assigned to 1 of 3 treatment groups in a 1:1:1 ratio with a 2:1 ratio of active:placebo within each treatment group (ie, 2 subjects to active treatment and 1 subject to placebo): • Group A: 8.75 mg 2-(diethylamino)ethyl 2-(4-isobutylphenyl)propionate/knee (2 sprays/knee, one spray to the medial surface and one spray to the lateral surface of the knee), twice daily (BID, approximately every 12 hours; n=50) or placebo (2 sprays/knee), BID (approximately every 12 hours; n=25) for a total of 4 sprays per knee per day; • Group B: 17.5 mg 2-(diethylamino)ethyl 2-(4-isobutylphenyl)propionate/knee (4 sprays/knee, one spray to the medial surface and one spray to the lateral surface of the knee, and one spray to front and one spray to the back of the knee), BID (approximately every 12 hours; n=50) or placebo (4 sprays/knee), BID (approximately every 12 hours; n=25) for a total of 8 sprays per knee per day; • Group C: 35 mg 2-(diethylamino)ethyl 2-(4-isobutylphenyl)propionate/knee (8 sprays/knee, each spray is to be applied to a different non-overlapping area around the knee, and the areas are to be uniformly distributed around the knee), BID (approximately every 12 hours; n=50) or placebo (8 sprays/knee), BID (approximately every 12 hours; n=25) for a total of 16 sprays per knee per day.
# The VAS version of the WOMAC will be used for the Primary and Secondary Efficacy Endpoints. Efficacy endpoints will be assessed at Screening and Baseline (Day 1) and at the Week 2, Week 4, Week 8, and Week 12/EOS visits.
# 3.9.2. Secondary Efficacy Endpoints: • 1. Change from Baseline in the WOMAC (VAS) pain subscale score for the target knee at 2, 4, and 8 weeks of treatment; • 2. Change from Baseline in the WOMAC (VAS) stiffness subscale scores for the target knee and WOMAC (VAS) functional ability subscale scores at 2, 4, 8, and 12 weeks of treatment; • 3. Change from Baseline in the overall WOMAC (VAS) score at 2, 4, 8, and 12 weeks of treatment.
# The Secondary Efficacy Endpoints, change from Baseline in the WOMAC subscale scores for pain, stiffness, and functional ability, and overall WOMAC score at 2, 4, 8, and 12 weeks of treatment, will be analyzed using the same methods as for the Primary Efficacy Endpoint.
# To determine this, we assumed that all patients received 2-(diethylamino)ethyl 2-(4-isobutylphenyl)propionate, active drug treatment (i.e. all patients who received 2-(diethylamino)ethyl 2-(4-isobutylphenyl)propionate or placebo treatment for 12 weeks or mixed up treatment during the 12-week treatment, as 2-(diethylamino)ethyl 2-(4-isobutylphenyl)propionate-treated). Based on this assumption, that is, to treat this trial as an open-label study and that all patients received active treatment, we conducted efficacy analysis using top-line efficacy datasets prepared by CRO and the re-analysis results are presented in the following tables (Tables 29-47). […] (William G. Bensen, Justus J. Fiechtner, James 1. McMillen, et. al. Treatment of Osteoarthritis with Celecoxib. Mayo Clin Proc, November 1999. Vol 74, 1095-1105.)
# [1] = 8.75 mg/knee (BID), Follow up (week 13, day 91)
# [2] = 8.75 mg/knee (BID), Week 2 (day 14)
# [3] = 8.75 mg/knee (BID), Week 4 (day 28)
# [4] = 8.75 mg/knee (BID), Week 8 (day 56)
# [5] = 8.75 mg/knee (BID), Week 12 (day 84)
# [6] = 17.5 mg/knee (BID), Follow up (week 13, day 91)
# [7] = 17.5 mg/knee (BID), Week 2 (day 14)
# [8] = 17.5 mg/knee (BID), Week 4 (day 28)
# [9] = 17.5 mg/knee (BID), Week 8 (day 56)
# [10] = 17.5 mg/knee (BID), Week 12 (day 84)
# [11] = 35 mg/knee (BID), Follow up (week 13, day 91)
# [12] = 35 mg/knee (BID), Week 2 (day 14)
# [13] = 35 mg/knee (BID), Week 4 (day 28)
compound,measurement,setting,value
CCN(CC)CCOC(=O)C(C)c1ccc(CC(C)C)cc1 (stereo not shown) [2-(diethylamino)ethyl 2-(4-isobutylphenyl)propionate],"Change of WOMAC Difficulty performing daily activities score from baseline (±SEM), adjusted by […] of the Testing Drug Amount",[1],−34.6(±5.8) mm
same,"Percentage of improvement from baseline, WOMAC Difficulty performing daily activities score, adjusted by […] of the Testing Drug Amount",[1],−57.6%
same,Change of WOMAC Difficulty performing daily activities score from baseline (±SEM),[1],−20.3(±3.4) mm
same,"Percentage of improvement from baseline, WOMAC Difficulty performing daily activities score",[1],−33.6%
same,"Change of WOMAC Difficulty performing daily activities score from baseline (±SEM), adjusted by […] of the Testing Drug Amount",[2],−18.2(±4.4) mm
same,"Percentage of improvement from baseline, WOMAC Difficulty performing daily activities score, adjusted by […] of the Testing Drug Amount",[2],−30.0%
same,Change of WOMAC Difficulty performing daily activities score from baseline (±SEM),[2],−10.6(±2.6) mm
same,"Percentage of improvement from baseline, WOMAC Difficulty performing daily activities score",[2],−17.5%
same,"Change of WOMAC Difficulty performing daily activities score from baseline (±SEM), adjusted by […] of the Testing Drug Amount",[3],−28.1(±5.1) mm
same,"Percentage of improvement from baseline, WOMAC Difficulty performing daily activities score, adjusted by […] of the Testing Drug Amount",[3],−46.7%
same,Change of WOMAC Difficulty performing daily activities score from baseline (±SEM),[3],−16.4(±3.0) mm
same,"Percentage of improvement from baseline, WOMAC Difficulty performing daily activities score",[3],−27.2%
same,"Change of WOMAC Difficulty performing daily activities score from baseline (±SEM), adjusted by […] of the Testing Drug Amount",[4],−33.1(±5.3) mm
same,"Percentage of improvement from baseline, WOMAC Difficulty performing daily activities score, adjusted by […] of the Testing Drug Amount",[4],−54.9%
same,Change of WOMAC Difficulty performing daily activities score from baseline (±SEM),[4],−19.3(±3.1) mm
same,"Percentage of improvement from baseline, WOMAC Difficulty performing daily activities score",[4],−32.0%
same,"Change of WOMAC Difficulty performing daily activities score from baseline (±SEM), adjusted by […] of the Testing Drug Amount",[5],−35.3(±5.8) mm
same,"Percentage of improvement from baseline, WOMAC Difficulty performing daily activities score, adjusted by […] of the Testing Drug Amount",[5],−58.5%
same,Change of WOMAC Difficulty performing daily activities score from baseline (±SEM),[5],−20.6(±3.4) mm
same,"Percentage of improvement from baseline, WOMAC Difficulty performing daily activities score",[5],−34.1%
same,"Change of WOMAC Difficulty performing daily activities score from baseline (±SEM), adjusted by […] of the Testing Drug Amount",[6],−39.6(±5.5) mm
same,"Percentage of improvement from baseline, WOMAC Difficulty performing daily activities score, adjusted by […] of the Testing Drug Amount",[6],−62.4%
same,Change of WOMAC Difficulty performing daily activities score from baseline (±SEM),[6],−23.1(±3.2) mm
same,"Percentage of improvement from baseline, WOMAC Difficulty performing daily activities score",[6],−36.4%
same,"Change of WOMAC Difficulty performing daily activities score from baseline (±SEM), adjusted by […] of the Testing Drug Amount",[7],−26.2(±4.1) mm
same,"Percentage of improvement from baseline, WOMAC Difficulty performing daily activities score, adjusted by […] of the Testing Drug Amount",[7],−41.3%
same,Change of WOMAC Difficulty performing daily activities score from baseline (±SEM),[7],−15.3(±2.4) mm
same,"Percentage of improvement from baseline, WOMAC Difficulty performing daily activities score",[7],−24.1%
same,"Change of WOMAC Difficulty performing daily activities score from baseline (±SEM), adjusted by […] of the Testing Drug Amount",[8],−36.2(±4.8) mm
same,"Percentage of improvement from baseline, WOMAC Difficulty performing daily activities score, adjusted by […] of the Testing Drug Amount",[8],−57.1%
same,"Percentage of improvement from baseline, WOMAC Difficulty performing daily activities score",[8],−33.3%
same,"Change of WOMAC Difficulty performing daily activities score from baseline (±SEM), adjusted by […] of the Testing Drug Amount",[9],−41.3(±5.1) mm
same,"Percentage of improvement from baseline, WOMAC Difficulty performing daily activities score, adjusted by […] of the Testing Drug Amount",[9],−65.2%
same,Change of WOMAC Difficulty performing daily activities score from baseline (±SEM),[9],−24.1(±3.0) mm
same,"Percentage of improvement from baseline, WOMAC Difficulty performing daily activities score",[9],−38.0%
same,"Change of WOMAC Difficulty performing daily activities score from baseline (±SEM), adjusted by […] of the Testing Drug Amount",[10],−46.1(±5.5) mm
same,"Percentage of improvement from baseline, WOMAC Difficulty performing daily activities score, adjusted by […] of the Testing Drug Amount",[10],−72.7%
same,Change of WOMAC Difficulty performing daily activities score from baseline (±SEM),[10],−26.9(±3.2) mm
same,"Percentage of improvement from baseline, WOMAC Difficulty performing daily activities score",[10],−42.4%
same,"Change of WOMAC Difficulty performing daily activities score from baseline (±SEM), adjusted by […] of the Testing Drug Amount",[11],−35.0(±4.5) mm
same,"Percentage of improvement from baseline, WOMAC Difficulty performing daily activities score, adjusted by […] of the Testing Drug Amount",[11],−60.9%
same,Change of WOMAC Difficulty performing daily activities score from baseline (±SEM),[11],−20.4(±2.6) mm
same,"Percentage of improvement from baseline, WOMAC Difficulty performing daily activities score",[11],−35.5%
same,"Change of WOMAC Difficulty performing daily activities score from baseline (±SEM), adjusted by […] of the Testing Drug Amount",[12],−16.1(±3.3) mm
same,"Percentage of improvement from baseline, WOMAC Difficulty performing daily activities score, adjusted by […] of the Testing Drug Amount",[12],−28.1%
same,Change of WOMAC Difficulty performing daily activities score from baseline (±SEM),[12],−9.4(±1.9) mm
same,"Percentage of improvement from baseline, WOMAC Difficulty performing daily activities score",[12],−16.4%
same,"Change of WOMAC Difficulty performing daily activities score from baseline (±SEM), adjusted by […] of the Testing Drug Amount",[13],−23.0(±3.9) mm
same,"Percentage of improvement from baseline, WOMAC Difficulty performing daily activities score, adjusted by […] of the Testing Drug Amount",[13],−40.0%
same,Change of WOMAC Difficulty performing daily activities score from baseline (±SEM),[13],−13.4(±2.3) mm
same,"Percentage of improvement from baseline, WOMAC Difficulty performing daily activities score",[13],−23.3%
same,"Change of WOMAC Difficulty performing daily activities score from baseline (±SEM), adjusted by […] of the Testing Drug Amount","35 mg/knee (BID), Week 8 (day 56)",−31.6(±4.5) mm
